According to patent US20250361274A1, “PEPTIDE AND PEPTIDE-CONTAINING AGENT” (PEPTIDREAM INC., priority 2022, published 2025):
pIC50: −log10 of the molar value. Entries after “also recorded” stand apart in the source; their conditions may differ. Numbered stars: 1 amine (or outer) side, 2 acyl side, 3 side chain; on linkers, the order of the positions; unused ones are H or OH. Bridge positions count the residues as written; N and C are the ends. Square brackets hold non-standard residues; d marks the D form. Peptide text beside a SMILES is read from it. ξ: configuration not given here. X2 = O=C(C[C@@H](Cc1ccc(-c2ccccc2)cc1)C(=O)[*:2])[C@@H]1CCCN1[*:1]; Phe(4-COOH) = N[C@@H](Cc1ccc(C(=O)O)cc1)C(=O)O; Bip = N[C@@H](Cc1ccc(-c2ccccc2)cc1)C(=O)O; Nle(6-COOH) = N[C@@H](CCCCC(=O)O)C(=O)O; X1 = N=C(CN)NCCC[C@H](N[*:1])C(=O)[*:2]; Ala(4-THP) = N[C@@H](CC1CCOCC1)C(=O)O; ξE = NC(CCC(=O)O)C(=O)O; βAla = NCCC(=O)O

Columns and labels:
BMP4 = biological target: T1, BMP4 (Homo sapiens, UniProt P12644); assay: BMP4 signal transduction inhibitory activity: SMAD1 phosphorylation by BMP4 stimulus, AlphaLISA SureFire, A549 cells; format: cell-based
T1 sequence (P12644 293-408): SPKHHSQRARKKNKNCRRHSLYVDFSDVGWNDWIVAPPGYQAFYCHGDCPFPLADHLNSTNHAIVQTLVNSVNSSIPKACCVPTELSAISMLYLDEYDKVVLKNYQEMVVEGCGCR

BMP7 = biological target: T2, BMP7 (Homo sapiens, UniProt P18075); assay: BMP7 signal transduction inhibitory activity: SMAD1 phosphorylation by BMP7 stimulus, A549 cells; format: cell-based
T2 sequence (P18075 293-431): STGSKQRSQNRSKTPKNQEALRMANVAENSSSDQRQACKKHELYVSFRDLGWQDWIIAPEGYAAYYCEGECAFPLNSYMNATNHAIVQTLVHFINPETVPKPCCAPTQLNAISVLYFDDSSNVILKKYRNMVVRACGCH
Method in brief: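 Inhibition was measured as loss of BMP7-induced SMAD1 phosphorylation, using 10 nM BMP7 on A549 cells. Most peptides were given as three-concentration sets, such as 1/10/100, 10/100/1,000, 100/300/1,000 or 10/30/90 nM. Others were given as eight 1/3-ratio dilutions from 100 or 1,000 nM, alongside Noggin as control.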

pIC50 (BMP4; Table 2, eight concentrations, ratio 1/3 from 2 nM, A549 cells): 10.28
SMILES: CC(C)[C@@H]1NC(=O)[C@H](CCCNC(=N)N)NC(=O)[C@H](CCCCC(=O)O)NC(=O)CSC[C@@H](C(=O)NCCC(=O)NC(CCC(=O)O)C(=O)O)NC(=O)[C@H](CO)NC(=O)[C@H](Cc2ccc(C(=O)O)cc2)NC(=O)[C@H](Cc2ccc(C(=O)O)cc2)NC(=O)[C@H](Cc2ccc(O)cc2)NC(=O)[C@H](Cc2ccc(-c3ccccc3)cc2)CC(=O)[C@@H]2CCCN2C(=O)[C@H](Cc2ccc(O)cc2)NC(=O)[C@@H]2CCCN2C(=O)[C@H](Cc2ccc(-c3ccccc3)cc2)NC(=O)[C@H](CCCNC(=N)CN)NC(=O)[C@H](CC(=O)O)NC(=O)[C@H](CC2CCOCC2)NC(=O)[C@H](Cc2ccc(C(=O)O)cc2)NC1=O (stereo partly shown) [SEQ ID No. 177] ({CH2CO}-[Nle(6-COOH)]RV[Phe(4-COOH)][Ala(4-THP)]D[X1][Bip]PY[X2]Y[Phe(4-COOH)][Phe(4-COOH)]SC[βAla][ξE]-OH; thioether N-16)
BMP4 inhibitory activity (in words) (BMP4): same level of the BMP4 inhibitory activity as Noggin; also recorded: signal transduction inhibitory activities of BMP4 and BMP7
aLISA BMP4 (BMP4; class of inhibition of SMAD1 phosphorylation by BMP4 stimulus, AlphaLISA, A549 cells): A (showed an inhibitory activity of 50% or more in a zone to which the peptide was added to in an amount of 0.2 nM)
BMP7 inhibitory activity (in words) (BMP7): same level of the BMP7 inhibitory activity as Noggin; also recorded: signal transduction inhibitory activities of BMP4 and BMP7
